# According to ChEMBL document CHEMBL1125696, “Synthesis and structure-activity relationships of deltorphin analogues” (J Med Chem, 1991):
# Non-standard residues stand in square brackets, D forms with d. Residues, ends and D or L forms follow the SMILES beside them. Abu = CC[C@H](N)C(=O)O
# Experiments:
# Mu-type opioid receptor [1] = target: T1, Mu-type opioid receptor (Rattus norvegicus, UniProt P33535); experiment: Displacement of [3H]- DAGO from opioid receptor mu in rat brain membrane; assay type: cell membranes
# T1 sequence (P33535 whole entry): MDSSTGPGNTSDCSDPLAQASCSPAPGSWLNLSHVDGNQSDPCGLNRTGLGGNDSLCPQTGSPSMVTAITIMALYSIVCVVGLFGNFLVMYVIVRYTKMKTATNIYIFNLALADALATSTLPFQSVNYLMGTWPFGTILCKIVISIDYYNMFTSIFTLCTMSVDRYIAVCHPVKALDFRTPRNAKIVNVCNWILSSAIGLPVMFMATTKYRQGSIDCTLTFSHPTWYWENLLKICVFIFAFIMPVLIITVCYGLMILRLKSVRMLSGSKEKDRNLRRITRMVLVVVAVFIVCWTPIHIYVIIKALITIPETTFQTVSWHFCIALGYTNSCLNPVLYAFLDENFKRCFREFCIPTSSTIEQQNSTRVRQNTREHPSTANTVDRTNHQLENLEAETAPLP
# [2] = target: T2, Delta-type opioid receptor (Rattus norvegicus, UniProt P33533); experiment: Displacement of [3H]- DPDPE from delta opioid receptor in rat brain membrane; assay type: cell membranes
# T2 sequence (P33533 whole entry): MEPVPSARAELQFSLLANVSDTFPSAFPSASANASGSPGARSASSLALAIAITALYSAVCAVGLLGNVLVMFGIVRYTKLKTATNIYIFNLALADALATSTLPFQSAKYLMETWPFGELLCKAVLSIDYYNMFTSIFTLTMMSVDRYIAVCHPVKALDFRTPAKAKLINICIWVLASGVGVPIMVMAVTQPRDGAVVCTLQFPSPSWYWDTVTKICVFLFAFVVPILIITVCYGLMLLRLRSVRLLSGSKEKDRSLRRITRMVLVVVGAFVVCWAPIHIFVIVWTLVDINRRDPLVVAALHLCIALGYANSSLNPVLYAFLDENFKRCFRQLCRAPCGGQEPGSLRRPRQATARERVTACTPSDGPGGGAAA
# [3] = target: T2, Delta-type opioid receptor; experiment: Displacement of [3H]DSLET from delta opioid receptor in rat brain membrane; assay type: cell membranes
# Mu-type opioid receptor [4] = target: T3, Mu-type opioid receptor (Cavia porcellus, UniProt P97266); experiment: Inhibition of opioid receptor mu in guinea pig ileum (GPI); assay type: tissue-based
# T3 sequence (P97266 whole entry): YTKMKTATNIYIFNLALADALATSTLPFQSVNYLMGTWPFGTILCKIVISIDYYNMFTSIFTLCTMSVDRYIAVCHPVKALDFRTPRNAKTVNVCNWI
# [5] = target: T4, Delta-type opioid receptor (Mus musculus, UniProt P32300); experiment: In vitro opioid receptor delta mediated mouse vas deferens (MVD) assay; assay type: tissue-based
# T4 sequence (P32300 whole entry): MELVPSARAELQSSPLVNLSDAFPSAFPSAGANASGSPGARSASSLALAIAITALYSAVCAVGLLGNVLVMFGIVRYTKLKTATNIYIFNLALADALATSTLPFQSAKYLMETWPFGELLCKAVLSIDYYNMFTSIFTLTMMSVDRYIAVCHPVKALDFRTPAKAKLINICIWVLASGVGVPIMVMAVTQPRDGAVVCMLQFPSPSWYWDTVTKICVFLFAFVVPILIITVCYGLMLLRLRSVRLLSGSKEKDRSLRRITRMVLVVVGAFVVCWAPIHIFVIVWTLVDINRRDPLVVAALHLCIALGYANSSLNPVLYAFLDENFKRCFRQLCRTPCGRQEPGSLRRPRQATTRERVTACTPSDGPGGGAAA
# Mu-type opioid receptor [6] = target: T3, Mu-type opioid receptor; experiment: Compound is tested in vitro in guinea pig ileum (GPI) assay mediated by Opioid receptor mu 1; assay type: tissue-based
# [7] = (§1) IC50 ratio is GPI/MVD
# [8] = target: T2, Delta-type opioid receptor; experiment: Opioid receptor binding affinity in rat brain membrane preparations by the displacement of [3H]DSLET (Opioid receptor delta 1-selective radioligand); assay type: cell membranes
# [9] = target: T4, Delta-type opioid receptor; experiment: Compound is tested in vitro in mouse vas deferens (MVD) assay mediated by Opioid receptor delta 1; assay type: tissue-based
# Mu-type opioid receptor [10] = target: T1, Mu-type opioid receptor; experiment: Opioid receptor mu 1 binding affinity in rat brain membrane preparations by the displacement of [3H]- DAGO; assay type: cell membranes
# [11] = as §1; assay type: functional
# [12] = IC50 ratio is [3H]- DAGO/[3H]-DSLET
# [13] = target: T2, Delta-type opioid receptor; experiment: Opioid receptor binding affinity in rat brain membrane preparations by the displacement of [3H]- DPDPE (Opioid receptor delta 1-selective radioligand); assay type: cell membranes
Molecule,IC50 (Mu-type opioid receptor [1]) [nM],IC50 [2] [nM],IC50 [3] [nM],IC50 (Mu-type opioid receptor [4]) [nM],IC50 [5] [nM],IC50 (Mu-type opioid receptor [6]) [nM],Ratio [7],IC50 [8] [nM],IC50 [9] [nM],IC50 (Mu-type opioid receptor [10]) [nM],Ratio [11],Ratio [12],IC50 [13] [nM]
CC(C)[C@H](NC(=O)[C@H](CC(=O)O)NC(=O)[C@H](Cc1ccccc1)NC(=O)[C@H](C)NC(=O)[C@@H](N)Cc1ccc(O)cc1)C(=O)N[C@H](C(=O)NCC(N)=O)C(C)C,910,1.1,1.5,420,,,,,,,,,
CC(C)[C@H](NC(=O)[C@H](CCC(=O)O)NC(=O)[C@H](Cc1ccccc1)NC(=O)[C@H](C)NC(=O)[C@@H](N)Cc1ccc(O)cc1)C(=O)N[C@H](C(=O)NCC(N)=O)C(C)C,,3.6,3.8,5200,,,,,,,,,
C[C@H](NC(=O)[C@@H](N)Cc1ccc(O)cc1)C(=O)N[C@@H](Cc1ccccc1)C(=O)N[C@@H](CC(=O)O)C(N)=O (H-YAFD-NH2),100,,960,160,1000,,,,,,,,
CC[C@H](NC(=O)[C@@H](NC(=O)CNC(=O)[C@H](Cc1ccccc1)NC(=O)[C@H](C)NC(=O)[C@@H](N)Cc1ccc(O)cc1)C(C)C)C(=O)N[C@@H](CC(=O)O)C(N)=O (H-YAFGV[Abu]D-NH2),,,,,,130,12,29.5,11.1,130,,,
CC[C@H](NC(=O)[C@H](CCSC)NC(=O)[C@H](CC(C)C)NC(=O)[C@H](Cc1cnc[nH]1)NC(=O)[C@H](Cc1ccccc1)NC(=O)[C@H](CCSC)NC(=O)[C@@H](N)Cc1ccc(O)cc1)C(N)=O (H-YMFHLM[Abu]-NH2),360,7.4,18,300,1.5,,,,,,,,
CC[C@H](NC(=O)[C@H](CCSC)NC(=O)[C@H](CC(C)C)NC(=O)[C@H](Cc1c[nH]cn1)NC(=O)[C@H](Cc1ccccc1)NC(=O)[C@H](CCSC)NC(=O)[C@@H](N)Cc1ccc(O)cc1)C(N)=O (H-YMFHLM[Abu]-NH2),,,,,,,,,,,200,,
CSCC[C@H](NC(=O)[C@H](CC(C)C)NC(=O)[C@H](Cc1cnc[nH]1)NC(=O)[C@H](Cc1ccccc1)NC(=O)[C@@H](CCSC)NC(=O)[C@@H](N)Cc1ccc(O)cc1)C(=O)N[C@@H](CC(=O)O)C(N)=O (H-Y[dM]FHLMD-NH2),1200,6.1,9,1900,1.3,,,,,,,,
CC(C)[C@H](NC(=O)[C@H](CCC(=O)O)NC(=O)[C@H](Cc1ccccc1)NC(=O)[C@H](C)NC(=O)[C@@H](N)Cc1ccc(O)cc1)C(=O)N[C@H](C(=O)NCC(=O)O)C(C)C [DELTORPHINE II],,,184,9000,5.55,,,,,,,,
C[C@@H](NC(=O)[C@@H](N)Cc1ccc(O)cc1)C(=O)N[C@@H](Cc1ccccc1)C(=O)NCC(=O)N[C@@H](Cc1ccc(O)cc1)C(=O)N1CCC[C@H]1C(=O)N[C@@H](CO)C(N)=O [DERMORPHIN],3.2,,,1.41,,,,,,,,,
H-YAFDV-NH2,640,,99,650,220,,,,,,,,
H-YAFDVV-NH2,700,,3.9,320,7.5,,,,,,,,
H-YAFQVVG-NH2,,,,,,280,185,3.8,1.51,280,,73,
H-YMFDLMD-OH,,,,,,> 15000,> 40,80,380,> 30000,,> 375,55
H-YMFFLMD-NH2,450,11,15,75,1.6,,,,,,47,,
H-YMFGLMD-NH2,,,,,,100,62,14,1.65,161,,11.5,8
H-YMFHLMD-OH,1500,2.4,4.5,6000,1.3,,,,,,,,
H-YMFHLMN-NH2 [listing 1 of 2 here],380,18,20,245,8,,,,,,,,
H-YMFHLMN-NH2 [listing 2 of 2 here],,,,,,,,,,,30,,
H-YMFHLMN-OH,660,16,22,350,9,,,,,,39,,
H-YMFKLMD-NH2,,,,,,7500,7.5,550,1000,6000,,11,380
H-YMFYLMD-NH2,158,5.9,9.1,100,1.02,,,,,,100,,
